Here are results for seven molecules from patent publication US5739283A, “Prevention of invasive pulmonary aspergillosis with serine proteinase inhibitors” (The Ohio State Research Foundation, priority 1995, dated 1998).

Structures can show the parent of a compound that is named as a salt.

Usually Km stands for the substrate concentration at which the rate is half of its maximum.

For data set [1], the target named is porcine pancreatic elastolytic serine protease (Sus scrofa, UniProt P00772). As to the kind of experiment: Residual serine protease activity after preincubation with serine protease inhibitors. It counts as biochemical. As to conditions: for Reduction of the activity of porcine serine protease (in words): summary of Table 3. As for the experimental part: (§1) Reaction mixtures for each protease were prepared by adding the protease to 0.1M Hepes, pH 7.5. The experimental samples were then preincubated for 30 minutes at 22° C. with 1 mM of the inhibitors. At the end of the 30 minute pre-incubation, the chromogenic substrate Suc-Ala-Ala-Pro-Leu-p-Na at a final concentration of 1 mM was added to each sample. The enzyme activity in the samples was monitored by measuring the release of pNA from the chromogenic substrate at 22° C. during a 10 minute reaction time. The enzyme activity in each experimental sample as a percentage of the enzyme activity in the control sample which was taken to be 100% was then determined.
Chain of porcine pancreatic elastolytic serine protease (P00772 27-266): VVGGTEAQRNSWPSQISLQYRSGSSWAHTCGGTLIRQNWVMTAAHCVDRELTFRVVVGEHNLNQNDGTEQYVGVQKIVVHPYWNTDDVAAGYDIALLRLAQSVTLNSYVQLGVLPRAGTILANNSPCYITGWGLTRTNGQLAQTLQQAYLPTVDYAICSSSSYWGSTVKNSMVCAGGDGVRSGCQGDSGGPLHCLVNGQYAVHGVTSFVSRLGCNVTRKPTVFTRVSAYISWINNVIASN

Data set [2] has as its target T1, A. fumigatus Serine Protease (Aspergillus fumigatus, UniProt P28296).
T1 construct: The extracellular serine proteases of A. fumigatus and A. flavus were purified from 5 day cultures; endogenous in cells; host or cells: Aspergillus fumigatus 5-day culture, extracellular fluid, bacitracin-Sepharose 4B
The data set is described as above. The format is biochemical. As to conditions: for Prevention of hydrolysis of Suc-Ala-Ala-Pro-Leu-pNA by A. fumigatus serine protease (in words): summary of Table 3; for Serine protease (SP) activity (%), A. fumigatus Serine Protease: inhibitor 1 mM, pH 7.5, 30 min preincubation at 22° C., control = 100%.
Source text: (§2) The serine protease inhibitors 4-carboxamido-substituted cephem (L-658,758), (S-(R*,S*))-4-((3,3-diethyl-1-((1-(4-methyl-phenyl)butylamino)carbonyl)-4-oxo-2-azetidinyl)oxy)-benzeneacetic acid 2-amino-2-methyl-1-propanol salt (L-680, 833) are known to irreversibly bind to the active site of the elastolytic serine protease obtained from neutrophils. It is also known that the serine protease inhibitor PMSF irreversibly binds to the active site of all serine proteases. The ability of the serine protease inhibitors L-658,758 and L-680,833, both of which were obtained from Merck Chemical Company, Rahway, N.J., and PMSF to block the proteolytic activity of the elastolytic serine proteases from Aspergillus fumigatus and Aspergillus flavus were tested as follows.
as §1

The target in data set [3] is T2, A. flavus Serine Protease (Aspergillus flavus, UniProt P35211).
T2 construct: The extracellular serine proteases of A. fumigatus and A. flavus were purified from 5 day cultures; endogenous in cells; host or cells: Aspergillus flavus 5-day culture, extracellular fluid, bacitracin-Sepharose 4B
T2 sequence (P35211 122-403): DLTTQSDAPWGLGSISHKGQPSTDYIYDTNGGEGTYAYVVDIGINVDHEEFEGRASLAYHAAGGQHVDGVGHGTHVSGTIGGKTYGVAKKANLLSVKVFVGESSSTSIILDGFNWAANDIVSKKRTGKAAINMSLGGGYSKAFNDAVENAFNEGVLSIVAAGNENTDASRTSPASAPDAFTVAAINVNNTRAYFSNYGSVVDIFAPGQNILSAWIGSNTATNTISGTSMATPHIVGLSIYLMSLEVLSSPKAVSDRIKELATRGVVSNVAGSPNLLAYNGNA
Described as above. The conditions noted are these: for Prevention of hydrolysis of Suc-Ala-Ala-Pro-Leu-pNA by A. flavus serine protease (in words): summary of Table 3. It counts as biochemical.
Source text: as §2, §1

For data set [4] the following is noted: background statement; cited from earlier work.
In data set [5] the test system is CC(C)C[C@H](NC(=O)[C@@H]1CCCN1C(=O)[C@H](C)NC(=O)[C@H](C)NC(=O)CCC(=O)O)C(=O)Nc1ccc([N+](=O)[O-])cc1. As to the kind of experiment: purified protein, by the assay type. As to conditions: other: 22° C., pH 8.0, Lineweaver-Burk plot.
Description: (§3) First the Km values of the elastolytic serine proteases from A. fumigatus and A. flavus were calculated. […] The Km of the elastolytic serine proteases from A. fumigatus and A. flavus were determined using the synthetic chromogenic molecule Suc-Ala-Ala-Pro-Leu-pNa as a substrate. Reaction mixtures were prepared containing 5 μm of various concentrations of the chromogenic substrate dissolved in dimethyl sulfoxide, 990 μm of 0.1M Tris-HCl, buffer pH 8.0, and 5 μm of the aspergillus protease (0.65 mg/ml). The release of pNa from the substrate and the subsequent increase in absorbance of the reaction mixture at 410 nm was monitored at 22° C. for 10 minutes using a Hewlett Packard 8451A diode array spectrophotometer. The initial rates of the enzymatic reaction at 22° C. were then determined for each concentration of substrate and the reciprocals plotted on a Lineweaver-Burk plot.
(§4) Next the ability of the reversible subtilisin-type inhibitors Barley ASI, purified SSI, and recombinant SSI and of the reversible chymotrypsin-type inhibitors Eglin C, potato protease I1, and potato protease I2 to block hydrolysis of the synthetic chromogenic substrate by the aspergillus elastolytic serine proteases was evaluated. Various concentrations of each inhibitor were pre-incubated for 5 minutes in samples containing the buffer and protease. […]
For data set [6] the following is noted: statement without test; cited from earlier work.
Data set [7] concerns the target A. fumigatus elastolytic serine protease (Aspergillus fumigatus, UniProt P28296). Kind of data set: Inhibition constants (Ki) of reversible inhibitors for A. fumigatus elastolytic serine protease, chromogenic substrate. As to conditions: summary of Table 2.
Description: as §3, §4
Data set [8] is described as follows: Toxicity of the composition in irradiated, uninoculated mice. The format is in vivo, Balb/c mice. As to conditions: Experiment 1, seven 10 μl treatments of the 50 mg/ml composition over 48 hours. As for the experimental part: Tests were conducted to assess the effect of treatment with the pharmaceutical compositions of the present invention on the pathogenesis of invasive pulmonary aspergillosis in immunocompromised animals. To prevent secondary bacterial or viral infections in the treated and control animals, pathogen-free eight-week old female Balb/c mice were housed in a Bioclean laminar flow hood and provided with oxytetracylcine (100 mg/l)-neomycin sulfate (10 mg/l), pH 2.5, from 7 days prior to irradiation until the end of each experiment. Following seven days of treatment with the antibiotics, one group of animals was made immunodeficient by exposure to 400 rads of gamma radiation from a Cesium 137 source.
To test the toxicity of the pharmaceutical composition of example 1, a second group of irradiated mice, inoculated with 30 ul of Tween alone were treated with a […] the pharmaceutical composition from example 1 according to the same schedule for a total of seven treatments.
Twenty-five, irradiated, uninoculated animals were also treated with […] of the pharmaceutical composition of example 4 according to the same schedule to assess the toxicity of the composition containing potato protease inhibitor in immunocompromised animals. The effect of treatment with the pharmaceutical composition of example 4 on the survival of uninoculated and aspergillus-inoculated animals is shown in Table 7.

Setting [9] is: inhibitor 1 mM, pH 7.5, 30 min preincubation at 22° C., control = 100%.

T1 sequence (P28296 122-403): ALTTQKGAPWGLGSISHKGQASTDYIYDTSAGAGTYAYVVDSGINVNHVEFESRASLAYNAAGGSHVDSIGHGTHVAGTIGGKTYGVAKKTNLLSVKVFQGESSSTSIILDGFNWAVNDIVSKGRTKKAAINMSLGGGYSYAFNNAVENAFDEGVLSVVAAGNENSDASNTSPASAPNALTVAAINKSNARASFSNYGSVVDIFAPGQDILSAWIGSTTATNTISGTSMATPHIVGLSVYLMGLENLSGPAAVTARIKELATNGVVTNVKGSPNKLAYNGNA
Chain of A. fumigatus elastolytic serine protease (P28296 122-403): as above

As to `CCC[C@@H](NC(=O)N1C(=O)C(CC)(CC)[C@@H]1Oc1ccc(CC(=O)O)cc1)c1ccc(C)cc1` [L680,833, (S-(R*,S*))-4-((3,3-diethyl-1-((1-(4-methyl-phenyl)butylamino)carbonyl)-4-oxo-2-azetidinyl)oxy)-benzeneacetic acid 2-amino-2-methyl-1-propanol salt], the activity at 1000 µM in data set [1] (inhibitor 1 mM, pH 7.5, 30 min preincubation at 22° C., control = 100%, read-out: Serine protease (SP) activity (%), Porcine pancreas Serine Protease) is 12%; in data set [2] (pH 7.5, read-out: Serine protease (SP) activity (%), A. fumigatus Serine Protease) it was 93%; in data set [3] (inhibitor 1 mM, pH 7.5, 30 min preincubation at 22° C., control = 100%, read-out: Serine protease (SP) activity (%), A. flavus Serine Protease), 89%. The “Reduction of the activity of porcine serine protease (in words)” value (“Reduction” below) in data set [1] is “effective at reducing the activity”. In addition, the “Prevention of hydrolysis of Suc-Ala-Ala-Pro-Leu-pNA by A. fumigatus serine protease (in words)” value in data set [2] is “ineffective”. For the same molecule, in data set [3], the “Prevention of hydrolysis of Suc-Ala-Ala-Pro-Leu-pNA by A. flavus serine protease (in words)” value is listed as “ineffective”.

For the molecule `C[C@@H]1[C@H](O)[C@@H](C)/C=C/C=C/C=C/C=C/C=C/C=C/C=C/[C@H](O[C@@H]2O[C@H](C)[C@@H](O)[C@H](N)[C@@H]2O)C[C@@H]2O[C@](O)(C[C@@H](O)C[C@@H](O)[C@H](O)CC[C@@H](O)C[C@@H](O)CC(=O)O[C@H]1C)C[C@H](O)[C@H]2C(=O)O` [amphotericin B], in data set [4], the Nephrotoxicity result was “serious side effect”.

Take “A. flavus elastolytic serine protease (Aspergillus flavus)”: the Km in data set [5] came to 570 µM.

`CO[C@H]1C(=O)N2C(C(=O)N3CCC[C@H]3C(=O)O)=C(COC(C)=O)CS(=O)(=O)[C@H]12` [L658,758, 4-carboxamido-substituted cephem]: in data set [1] (setting [9]), the “Serine protease (SP) activity (%), Porcine pancreas Serine Protease” value came out at 6.6%. For the same molecule, the “Reduction” value in data set [1] was “effective at reducing the activity”. In data set [2], the “Serine protease (SP) activity (%), A. fumigatus Serine Protease” value was determined as 93% and the “Prevention of hydrolysis of Suc-Ala-Ala-Pro-Leu-pNA by A. fumigatus serine protease (in words)” value is “ineffective”. Also, the “Serine protease (SP) activity (%), A. flavus Serine Protease” value in data set [3] (setting [9]) stood at 91%. Also, in data set [3], the “Prevention of hydrolysis of Suc-Ala-Ala-Pro-Leu-pNA by A. flavus serine protease (in words)” value was “ineffective”.

Take `O=S(=O)(F)Cc1ccccc1` [PMSF]: in data set [6], the “Toxicity (in words)” value is “highly toxic”. Moreover, the “Serine protease (SP) activity (%), Porcine pancreas Serine Protease” value in data set [1] (setting [9]) is on record as 0%. Further, the “Reduction” value in data set [1] was “reduced the enzymatic activity”. Moreover, in data set [2], the “Serine protease (SP) activity (%), A. fumigatus Serine Protease” value is listed as 0.89% and the “Prevention of hydrolysis of Suc-Ala-Ala-Pro-Leu-pNA by A. fumigatus serine protease (in words)” value is given as “reduced the enzymatic activity”. In addition, the “Serine protease (SP) activity (%), A. flavus Serine Protease” value in data set [3] (setting [9]) worked out at 0%. Also, in data set [3], the “Prevention of hydrolysis of Suc-Ala-Ala-Pro-Leu-pNA by A. flavus serine protease (in words)” value is reported as “reduced the enzymatic activity”.

With “A. fumigatus elastolytic serine protease (Aspergillus fumigatus Af293)”, in data set [5], the Km is 350 µM.

B1: SSI: protein produced and secreted by streptomyces, purified from Streptomyces albogriseolus strains (protein, UniProt P01006 32-144, looked up)
Subtilisin inhibitor: DAPSALYAPSALVLTVGKGVSATTAAPERAVTLTCAPGPSGTHPAAGSACADLAAVGGDLNALTRGEDVMCPMVYDPVLLTVDGVWQGKRVSYERVFSNECEMNAHGSSVFAF
In the case of B1, the “Inhibition of the elastolytic serine protease from A. fumigatus (in words)” value in data set [7] is on record as “greatest inhibitory effect”. For the same molecule, the “Mortality of treated, uninoculated, immunocompromised animals” value in data set [8] is given as “no mortality”.
